Data reported in patent publication US7157561B2, “Methods of inhibiting transmission of a costimulatory signal of lymphocytes” (Roche Diagnostics Operations, Inc., priority 2001, dated 2007).

Assays:
[1] = tested on: antibody ATZ 4.1; experiment: Antibody specificity ELISA (competition of free drug with atazanavir-BSA conjugate), antibody ATZ 4.1; format: binding, mouse; details: for ED50 (M/L): free drug concentration giving 50% of binding in absence of free drug, 4-parameter logistic fit; for % Cross Rx: relative to atazanavir ED50
Description: (§1) Screening of growing hybridomas was carried out by an ELISA using the atazanavir-BSA conjugate (7) and free atazanavir. Microplates were coated with 50 μL atazanavir-BSA conjugate at 1 μg/mL in 0.1 M carbonate buffer, pH 9.5 for 1 hour at 37° C. (humidified). The plates were then emptied and filled with a post-coat solution consisting of Tris buffer, 1% gelatin hydrolysate, 2% sucrose, and 0/17% TWEEN 20 (all from Sigma Chemical Co.). The plates were incubated for an additional 1 hour at 37° C. (humidified) after which they were washed with phosphate-buffered saline containing 0.1% TWEEN 20. The plates were then filled with a 2% sucrose solution in 0.15 M Tris, pH 7.2–7.4 briefly, then emptied and allowed to air dry at room temperature. When dried, the plates were packed in zip-lock bags containing several desiccant pillows, sealed, and stored at 4° C. until use.
(§2) When the growing clones were judged ready for testing, 25 μL of supernatant from the wells were taken and transferred to 96-well flexible plates. Culture medium was added to each well to provide a 1:10 dilution of the media sample. Two atazanavir-BSA coated wells were used for each culture well tested. One well received 25 μL of PBS buffer, the other received 25 μL of PBS containing atazanavir drug at a concentration of 800 ng/ml. Twenty-five microliters of the diluted sample were transferred to each of two of the coated wells above. The plates were incubated covered for 1 hour at 37° C., then washed with PBS-TWEEN. The wells were then filled with 100 μL of goat anti-mouse IgG-HRP conjugate (Zymed Labs) diluted 1:5,000 in PBS-TWEEN and the plates re-incubated for 1 hour. The plates were then washed again, and 100 μL of K-BLUE SUBSTRATE (Neogen Corp) were added to each well. This was allowed to develop for 5–15 minutes, the reaction being stopped by the addition of 100 μL of 1 N HCl. Color was read via a microplate reader at 450 nm and collected by computer for analysis. Criteria for selection were binding to the well in which the PBS was added and significant inhibition of binding in the well receiving the free drug.
(§3) The antibody containing culture supernatants from the expansion cultures were subjected to specificity analysis by the following procedure. First, the titer appropriate for analysis was determined by dilution analysis. A dilution of antibody providing for approximately 50% of maximal binding was selected for proceeding to the next step. Second, binding to the atazanavir-BSA conjugate was examined at the above antibody dilution, in the presence of varying amounts of seven HIV protease inhibitor drugs. The data was subjected to analysis by non-linear regression curve fitting to a 4-parameter logistic function. That parameter which describes the concentration of the free drug which corresponds to 50% of the binding in the absence of free drug is termed the ED50 for that drug. The specificity of the antibody can thus be described by comparing the ED50 of the cognate drug, atazanavir, or atz ED50 with the other values for other drugs fitted from those data according to the following equation (using nelfinavir data for this example):
(§4) [formula] The four parameter logistic function used is
(§5) [formula] where S is the curvature parameter, ODmax is the optical density with 0 drug concentration, ODmin is the optical density of the background of the instrument, and ODx is the optical density observed at drug concentration X in moles/liter (M/L).
(§6) Atazanavir metabolite is 4-pyridin-2-yl-benzoic acid (Synchem, Inc.).

[2] = tested on: antibody ATZ 3.1; experiment: Antibody specificity ELISA (competition of free drug with atazanavir-BSA conjugate), antibody ATZ 3.1; format: binding, mouse; details: for ED50 (M/L): free drug concentration giving 50% of binding in absence of free drug, 4-parameter logistic fit; for % Cross Rx: relative to atazanavir ED50
Description: as §1, §2, §3, §4, §5, §6

COC(=O)N[C@H](C(=O)N[C@@H](Cc1ccccc1)[C@@H](O)CN(Cc1ccc(-c2ccccn2)cc1)NC(=O)[C@@H](NC(=O)OC)C(C)(C)C)C(C)(C)C [Atazanavir, atazanavir]
ED50 (M/L) [1]: 4.4 × 10^−6 M/L
% Cross Rx [1]: 100%
ED50 (M/L) [2]: 7 × 10^−7 M/L
% Cross Rx [2]: 100%

CC(C)(C)NC(=O)[C@@H]1CN(Cc2cccnc2)CCN1C[C@@H](O)C[C@@H](Cc1ccccc1)C(=O)N[C@H]1c2ccccc2C[C@H]1O [Indinavir, indinavir]
ED50 (M/L) [1]: >2 × 10^−6 M/L
% Cross Rx [1]: <1%
ED50 (M/L) [2]: >2 × 10^−6 M/L
% Cross Rx [2]: <1%

CC(C)c1nc(CN(C)C(=O)N[C@H](C(=O)N[C@@H](Cc2ccccc2)C[C@H](O)[C@H](Cc2ccccc2)NC(=O)OCc2cncs2)C(C)C)cs1 [Ritonavir, ritonavir]
ED50 (M/L) [1]: >2 × 10^−6 M/L
% Cross Rx [1]: <1%
ED50 (M/L) [2]: >2 × 10^−6 M/L
% Cross Rx [2]: <1%

CC(C)(C)NC(=O)[C@@H]1C[C@@H]2CCCC[C@@H]2CN1C[C@@H](O)[C@H](Cc1ccccc1)NC(=O)[C@H](CC(N)=O)NC(=O)c1ccc2ccccc2n1 [Saquinavir, saquinavir]
ED50 (M/L) [1]: >2 × 10^−6 M/L
% Cross Rx [1]: <1%
ED50 (M/L) [2]: >2 × 10^−6 M/L
% Cross Rx [2]: <1%

Cc1cccc(C)c1OCC(=O)N[C@@H](Cc1ccccc1)[C@@H](O)C[C@H](Cc1ccccc1)NC(=O)[C@H](C(C)C)N1CCCNC1=O [Lopinavir, lopinavir]
ED50 (M/L) [1]: >2 × 10^−6 M/L
% Cross Rx [1]: <1%
ED50 (M/L) [2]: >2 × 10^−6 M/L
% Cross Rx [2]: <1%

CC(C)CN(C[C@@H](O)[C@H](Cc1ccccc1)NC(=O)O[C@H]1CCOC1)S(=O)(=O)c1ccc(N)cc1 [Amprenavir, amprenavir]
ED50 (M/L) [1]: >2 × 10^−6 M/L
% Cross Rx [1]: <1%
ED50 (M/L) [2]: >2 × 10^−6 M/L
% Cross Rx [2]: <1%

O=C(O)c1ccc(-c2ccccn2)cc1 [Atazanavir metabolite, 4-pyridin-2-yl-benzoic acid]
ED50 (M/L) [1]: >2 × 10^−6 M/L
% Cross Rx [1]: <1%
ED50 (M/L) [2]: >2 × 10^−6 M/L
% Cross Rx [2]: <1%

Cc1c(O)cccc1C(=O)N[C@@H](CSc1ccccc1)[C@H](O)CN1C[C@H]2CCCC[C@H]2C[C@H]1C(=O)NC(C)(C)C [Nelfinavir, nelfinavir]
ED50 (M/L) [1]: >2 × 10^−6 M/L
% Cross Rx [1]: <1%
ED50 (M/L) [2]: >2 × 10^−6 M/L
% Cross Rx [2]: <1%
